Laboratory results from publication PMC8048960 (Chemmedchem, 2020).
Peptide text beside a SMILES is read from it. * marks the point of attachment. Cbz = O=C(OCc1ccccc1)*

Experiments:
[1] = target: purified full‐length Strep flag LRRK2 (Homo sapiens, UniProt Q5S007); assay: In vitro radioactive kinase assay; type: biochemical
[2] = target: GFP‐tagged LRRK2 in transfected HEK293 cells (Homo sapiens, UniProt Q5S007); assay: Ubiquitin assay; type: cell-based; conditions: 24 h; for LRRK2 ubiquitination (ubiquitin signal): 10 µM, with or without 5 µM MG132, compared to DMSO
Chain of GFP‐tagged LRRK2 in transfected HEK293 cells (Q5S007 whole entry): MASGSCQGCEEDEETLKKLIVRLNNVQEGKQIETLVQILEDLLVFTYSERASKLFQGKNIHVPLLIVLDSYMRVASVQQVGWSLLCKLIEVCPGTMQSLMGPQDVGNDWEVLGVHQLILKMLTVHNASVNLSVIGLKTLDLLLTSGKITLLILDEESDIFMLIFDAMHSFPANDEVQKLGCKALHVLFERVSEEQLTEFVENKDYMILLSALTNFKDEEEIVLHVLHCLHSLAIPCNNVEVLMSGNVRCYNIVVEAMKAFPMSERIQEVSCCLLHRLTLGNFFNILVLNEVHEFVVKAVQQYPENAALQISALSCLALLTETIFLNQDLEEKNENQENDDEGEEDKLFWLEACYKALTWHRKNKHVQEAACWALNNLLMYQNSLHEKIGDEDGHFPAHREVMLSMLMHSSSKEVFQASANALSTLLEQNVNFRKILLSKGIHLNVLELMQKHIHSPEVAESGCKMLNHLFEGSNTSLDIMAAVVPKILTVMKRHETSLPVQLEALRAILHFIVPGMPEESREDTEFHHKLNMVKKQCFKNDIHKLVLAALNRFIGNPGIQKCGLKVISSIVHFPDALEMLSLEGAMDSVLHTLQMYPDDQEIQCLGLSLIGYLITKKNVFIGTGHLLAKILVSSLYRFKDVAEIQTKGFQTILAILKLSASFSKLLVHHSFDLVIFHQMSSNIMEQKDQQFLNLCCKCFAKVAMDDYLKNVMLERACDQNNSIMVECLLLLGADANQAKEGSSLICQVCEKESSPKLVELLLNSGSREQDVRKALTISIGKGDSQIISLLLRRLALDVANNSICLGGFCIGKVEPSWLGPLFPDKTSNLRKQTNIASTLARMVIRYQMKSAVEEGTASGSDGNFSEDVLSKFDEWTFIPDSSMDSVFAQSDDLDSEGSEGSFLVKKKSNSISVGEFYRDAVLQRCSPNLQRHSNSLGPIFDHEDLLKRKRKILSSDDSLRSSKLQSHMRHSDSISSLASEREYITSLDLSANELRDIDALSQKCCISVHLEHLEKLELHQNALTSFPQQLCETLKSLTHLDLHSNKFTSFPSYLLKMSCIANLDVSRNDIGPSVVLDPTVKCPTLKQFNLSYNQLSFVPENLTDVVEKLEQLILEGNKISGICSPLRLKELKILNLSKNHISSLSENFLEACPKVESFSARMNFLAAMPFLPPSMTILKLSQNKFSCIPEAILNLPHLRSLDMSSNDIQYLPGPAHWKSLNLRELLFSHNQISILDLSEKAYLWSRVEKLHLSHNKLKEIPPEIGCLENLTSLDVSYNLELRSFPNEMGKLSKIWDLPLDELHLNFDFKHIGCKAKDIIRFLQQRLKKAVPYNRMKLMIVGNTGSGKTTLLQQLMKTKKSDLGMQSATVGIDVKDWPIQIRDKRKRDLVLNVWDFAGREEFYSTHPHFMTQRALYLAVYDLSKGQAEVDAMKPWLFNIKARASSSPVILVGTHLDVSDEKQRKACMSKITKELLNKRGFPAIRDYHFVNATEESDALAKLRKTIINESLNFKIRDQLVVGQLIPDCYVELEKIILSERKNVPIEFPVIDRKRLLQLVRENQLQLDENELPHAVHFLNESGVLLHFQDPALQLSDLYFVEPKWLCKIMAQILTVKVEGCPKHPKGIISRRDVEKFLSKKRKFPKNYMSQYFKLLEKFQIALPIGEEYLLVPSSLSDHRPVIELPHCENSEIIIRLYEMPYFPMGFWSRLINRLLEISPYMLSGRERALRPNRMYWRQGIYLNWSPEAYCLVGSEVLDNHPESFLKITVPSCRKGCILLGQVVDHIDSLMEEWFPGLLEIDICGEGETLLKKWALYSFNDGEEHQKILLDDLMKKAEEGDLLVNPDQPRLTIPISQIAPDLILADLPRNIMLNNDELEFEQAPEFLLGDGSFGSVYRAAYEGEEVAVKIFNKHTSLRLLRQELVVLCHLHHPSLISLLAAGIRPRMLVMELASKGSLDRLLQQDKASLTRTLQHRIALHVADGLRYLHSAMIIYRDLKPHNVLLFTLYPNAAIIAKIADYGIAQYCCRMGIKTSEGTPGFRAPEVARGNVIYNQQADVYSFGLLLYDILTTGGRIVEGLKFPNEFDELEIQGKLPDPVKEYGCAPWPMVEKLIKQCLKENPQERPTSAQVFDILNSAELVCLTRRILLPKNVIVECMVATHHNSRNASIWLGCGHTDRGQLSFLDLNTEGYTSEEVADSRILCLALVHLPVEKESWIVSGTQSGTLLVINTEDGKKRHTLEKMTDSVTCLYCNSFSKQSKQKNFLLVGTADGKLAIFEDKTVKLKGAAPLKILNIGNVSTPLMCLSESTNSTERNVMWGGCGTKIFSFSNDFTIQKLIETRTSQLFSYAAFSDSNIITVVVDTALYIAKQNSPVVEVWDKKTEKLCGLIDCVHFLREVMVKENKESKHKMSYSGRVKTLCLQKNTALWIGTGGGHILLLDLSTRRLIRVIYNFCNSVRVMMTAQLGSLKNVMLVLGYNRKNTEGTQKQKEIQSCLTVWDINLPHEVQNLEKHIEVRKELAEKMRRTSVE

[3] = cited from earlier work
LRRK2 [4] = conditions: read-out: Ki in the biochemical assay; cited from earlier work
LRRK2 [5] = conditions: read-out: IC50 in the cellular assay; cited from earlier work
kinome = conditions: kinases hit out of panel of 187; cited from earlier work

Chain of purified full‐length Strep flag LRRK2 (Q5S007 whole entry): as above

IC50 [1] | ubiquitin signal ([2]; 5 µM MG132 (proteasome inhibitor)) | Structure (SMILES) | LRRK2 ubiquitination (ubiquitin signal) [2] | brain penetration [3] | Ki (LRRK2 [4]) | IC50 (LRRK2 [5]) | kinome selectivity (kinome)
17.3 ± 6.76 nM |  | CCNc1nc(Nc2cc(F)c(C(=O)N3CCOCC3)cc2OC)ncc1C(F)(F)F [GNE‐7915] | neither the original kinase inhibitor (11) nor PROTAC (33) increase LRRK2 ubiquitination | brain penetrant | 2 nM | 9 nM | 1 out of 187
14.7 ± 6.14 nM |  | CCNc1nc(Nc2cc(F)c(C(=O)NCCCCNc3cccc4c3C(=O)N(C3CCC(=O)NC3=O)C4=O)cc2OC)ncc1C(F)(F)F (stereo not drawn) [PROTAC 33] | unable to increase the ubiquitin signal |  |  |  | 
 | can enhance the ubiquitin signal | CC(C)C[C@@H](C=O)NC(=O)[C@H](CC(C)C)NC(=O)[C@H](CC(C)C)NC(=O)OCc1ccccc1 [MG132] (Cbz-Leu-Leu-Leu-aldehyde) |  |  |  |  | 
